Tests used:
[1] = TBD: TBD
[2] = target: T1, Dihydrofolate reductase (Homo sapiens, UniProt P00374); assay: TBD: TBD
T1 sequence (P00374 whole entry): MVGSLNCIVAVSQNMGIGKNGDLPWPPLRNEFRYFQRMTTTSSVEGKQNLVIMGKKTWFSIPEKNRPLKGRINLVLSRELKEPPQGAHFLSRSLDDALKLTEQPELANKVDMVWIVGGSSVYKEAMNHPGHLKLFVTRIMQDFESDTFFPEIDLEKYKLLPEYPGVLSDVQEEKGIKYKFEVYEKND

[3] = target: Epidermal growth factor receptor (Homo sapiens, UniProt P00533); assay: TBD: TBD
[4] = target: Platelet-derived growth factor receptor beta (Homo sapiens, UniProt P09619); assay: TBD: TBD
Platelet-derived growth factor receptor beta, sequence (P09619 whole entry): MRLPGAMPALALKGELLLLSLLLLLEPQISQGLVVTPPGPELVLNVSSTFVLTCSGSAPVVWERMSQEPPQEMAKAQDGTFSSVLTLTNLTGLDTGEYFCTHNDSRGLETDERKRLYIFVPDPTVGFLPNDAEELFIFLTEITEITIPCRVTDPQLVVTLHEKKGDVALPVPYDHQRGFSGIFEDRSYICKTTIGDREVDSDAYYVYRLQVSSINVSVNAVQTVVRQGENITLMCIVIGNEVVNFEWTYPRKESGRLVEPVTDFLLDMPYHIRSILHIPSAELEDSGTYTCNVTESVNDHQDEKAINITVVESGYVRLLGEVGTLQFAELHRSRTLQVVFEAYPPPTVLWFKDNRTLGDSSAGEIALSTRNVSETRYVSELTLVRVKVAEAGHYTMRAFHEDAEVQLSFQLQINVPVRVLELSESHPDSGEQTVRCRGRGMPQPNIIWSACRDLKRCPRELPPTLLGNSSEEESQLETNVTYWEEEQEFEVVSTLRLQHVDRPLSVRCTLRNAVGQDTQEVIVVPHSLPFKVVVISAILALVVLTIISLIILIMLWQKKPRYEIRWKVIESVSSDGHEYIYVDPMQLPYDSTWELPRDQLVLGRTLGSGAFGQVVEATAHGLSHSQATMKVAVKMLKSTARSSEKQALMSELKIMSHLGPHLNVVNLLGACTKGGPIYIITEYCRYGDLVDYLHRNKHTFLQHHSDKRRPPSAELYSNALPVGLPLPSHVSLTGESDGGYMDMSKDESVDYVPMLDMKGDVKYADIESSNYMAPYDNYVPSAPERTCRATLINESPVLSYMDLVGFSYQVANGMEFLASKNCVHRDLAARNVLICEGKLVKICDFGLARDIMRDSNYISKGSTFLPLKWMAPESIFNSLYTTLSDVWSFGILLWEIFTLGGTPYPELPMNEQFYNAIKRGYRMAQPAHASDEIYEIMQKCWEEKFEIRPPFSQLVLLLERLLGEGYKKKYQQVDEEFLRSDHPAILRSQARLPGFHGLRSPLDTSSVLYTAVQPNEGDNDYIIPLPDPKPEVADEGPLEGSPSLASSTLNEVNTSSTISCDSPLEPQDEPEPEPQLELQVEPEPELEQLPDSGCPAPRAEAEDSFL

[5] = target: Vascular endothelial growth factor receptor 1 (Homo sapiens, UniProt P17948); assay: TBD: TBD
Vascular endothelial growth factor receptor 1, sequence (P17948 whole entry): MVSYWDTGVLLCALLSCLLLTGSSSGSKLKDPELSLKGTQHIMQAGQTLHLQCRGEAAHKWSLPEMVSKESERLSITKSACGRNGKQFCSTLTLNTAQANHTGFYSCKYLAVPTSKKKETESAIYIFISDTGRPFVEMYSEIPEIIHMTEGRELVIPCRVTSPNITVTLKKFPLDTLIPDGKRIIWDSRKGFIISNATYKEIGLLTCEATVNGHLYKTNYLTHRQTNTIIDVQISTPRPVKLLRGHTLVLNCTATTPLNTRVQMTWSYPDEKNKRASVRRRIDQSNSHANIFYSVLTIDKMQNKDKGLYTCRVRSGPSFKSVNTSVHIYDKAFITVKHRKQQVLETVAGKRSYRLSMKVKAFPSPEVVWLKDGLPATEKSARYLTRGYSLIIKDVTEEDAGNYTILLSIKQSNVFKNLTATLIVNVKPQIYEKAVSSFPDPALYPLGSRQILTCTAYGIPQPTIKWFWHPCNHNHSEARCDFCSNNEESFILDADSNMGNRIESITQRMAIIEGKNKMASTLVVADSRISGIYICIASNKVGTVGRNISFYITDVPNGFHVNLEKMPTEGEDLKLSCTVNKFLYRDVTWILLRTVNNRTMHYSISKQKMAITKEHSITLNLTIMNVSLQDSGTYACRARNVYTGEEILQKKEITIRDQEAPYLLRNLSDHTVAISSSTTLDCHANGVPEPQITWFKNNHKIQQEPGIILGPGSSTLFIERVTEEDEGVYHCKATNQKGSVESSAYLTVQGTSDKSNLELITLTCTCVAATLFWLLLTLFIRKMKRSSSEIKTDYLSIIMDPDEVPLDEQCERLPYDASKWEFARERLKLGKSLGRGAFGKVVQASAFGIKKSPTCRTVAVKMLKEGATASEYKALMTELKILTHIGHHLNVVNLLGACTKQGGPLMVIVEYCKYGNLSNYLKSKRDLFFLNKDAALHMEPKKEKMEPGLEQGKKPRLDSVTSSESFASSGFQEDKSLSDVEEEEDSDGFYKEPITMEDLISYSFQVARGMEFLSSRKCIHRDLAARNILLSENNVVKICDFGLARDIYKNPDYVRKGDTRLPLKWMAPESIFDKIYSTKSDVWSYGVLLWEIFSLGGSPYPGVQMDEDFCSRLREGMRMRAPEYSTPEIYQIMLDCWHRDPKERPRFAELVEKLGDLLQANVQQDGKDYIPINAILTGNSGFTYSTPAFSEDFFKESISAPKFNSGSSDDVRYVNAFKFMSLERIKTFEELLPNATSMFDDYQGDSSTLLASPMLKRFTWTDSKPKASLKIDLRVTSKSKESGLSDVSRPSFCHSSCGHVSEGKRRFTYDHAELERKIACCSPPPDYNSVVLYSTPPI

[6] = target: Vascular endothelial growth factor receptor 2 (Homo sapiens, UniProt P35968); assay: TBD: TBD
Vascular endothelial growth factor receptor 2, sequence (P35968 whole entry): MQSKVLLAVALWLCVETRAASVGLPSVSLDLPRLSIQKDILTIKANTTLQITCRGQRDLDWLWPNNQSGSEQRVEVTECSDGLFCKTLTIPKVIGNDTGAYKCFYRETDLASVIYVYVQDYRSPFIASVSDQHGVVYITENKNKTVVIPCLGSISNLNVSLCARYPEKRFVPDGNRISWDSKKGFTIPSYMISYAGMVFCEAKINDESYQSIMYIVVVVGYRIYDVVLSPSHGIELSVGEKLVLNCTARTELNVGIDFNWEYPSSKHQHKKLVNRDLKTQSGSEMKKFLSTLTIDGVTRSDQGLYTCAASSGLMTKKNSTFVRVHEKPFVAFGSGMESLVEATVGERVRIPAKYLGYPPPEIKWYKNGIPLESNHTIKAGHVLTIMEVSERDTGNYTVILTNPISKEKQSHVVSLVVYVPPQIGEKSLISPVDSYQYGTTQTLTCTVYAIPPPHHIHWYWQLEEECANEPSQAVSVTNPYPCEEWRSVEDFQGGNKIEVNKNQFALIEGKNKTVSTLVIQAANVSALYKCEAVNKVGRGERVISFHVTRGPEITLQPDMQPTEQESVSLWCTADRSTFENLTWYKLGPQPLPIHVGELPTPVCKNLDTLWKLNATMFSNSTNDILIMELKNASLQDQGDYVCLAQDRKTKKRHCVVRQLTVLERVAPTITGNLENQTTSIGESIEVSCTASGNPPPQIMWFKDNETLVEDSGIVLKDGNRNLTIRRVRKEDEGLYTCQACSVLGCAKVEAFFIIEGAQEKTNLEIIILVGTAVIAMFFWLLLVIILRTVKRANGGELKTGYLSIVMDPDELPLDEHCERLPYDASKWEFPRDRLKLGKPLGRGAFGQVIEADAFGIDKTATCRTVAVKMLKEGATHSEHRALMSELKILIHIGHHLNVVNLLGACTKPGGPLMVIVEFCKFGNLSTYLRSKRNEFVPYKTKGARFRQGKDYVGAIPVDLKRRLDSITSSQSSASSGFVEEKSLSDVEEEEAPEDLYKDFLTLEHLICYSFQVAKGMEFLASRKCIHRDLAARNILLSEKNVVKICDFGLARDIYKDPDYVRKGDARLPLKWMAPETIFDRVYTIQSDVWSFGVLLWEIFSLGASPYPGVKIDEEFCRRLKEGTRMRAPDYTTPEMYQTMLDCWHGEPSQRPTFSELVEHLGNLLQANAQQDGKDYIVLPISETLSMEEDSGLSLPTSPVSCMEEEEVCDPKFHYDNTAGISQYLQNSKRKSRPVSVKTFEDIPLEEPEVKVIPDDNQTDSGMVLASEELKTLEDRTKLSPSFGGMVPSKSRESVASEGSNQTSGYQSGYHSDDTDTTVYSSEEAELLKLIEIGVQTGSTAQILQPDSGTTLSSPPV

Epidermal growth factor receptor, sequence (P00533 whole entry): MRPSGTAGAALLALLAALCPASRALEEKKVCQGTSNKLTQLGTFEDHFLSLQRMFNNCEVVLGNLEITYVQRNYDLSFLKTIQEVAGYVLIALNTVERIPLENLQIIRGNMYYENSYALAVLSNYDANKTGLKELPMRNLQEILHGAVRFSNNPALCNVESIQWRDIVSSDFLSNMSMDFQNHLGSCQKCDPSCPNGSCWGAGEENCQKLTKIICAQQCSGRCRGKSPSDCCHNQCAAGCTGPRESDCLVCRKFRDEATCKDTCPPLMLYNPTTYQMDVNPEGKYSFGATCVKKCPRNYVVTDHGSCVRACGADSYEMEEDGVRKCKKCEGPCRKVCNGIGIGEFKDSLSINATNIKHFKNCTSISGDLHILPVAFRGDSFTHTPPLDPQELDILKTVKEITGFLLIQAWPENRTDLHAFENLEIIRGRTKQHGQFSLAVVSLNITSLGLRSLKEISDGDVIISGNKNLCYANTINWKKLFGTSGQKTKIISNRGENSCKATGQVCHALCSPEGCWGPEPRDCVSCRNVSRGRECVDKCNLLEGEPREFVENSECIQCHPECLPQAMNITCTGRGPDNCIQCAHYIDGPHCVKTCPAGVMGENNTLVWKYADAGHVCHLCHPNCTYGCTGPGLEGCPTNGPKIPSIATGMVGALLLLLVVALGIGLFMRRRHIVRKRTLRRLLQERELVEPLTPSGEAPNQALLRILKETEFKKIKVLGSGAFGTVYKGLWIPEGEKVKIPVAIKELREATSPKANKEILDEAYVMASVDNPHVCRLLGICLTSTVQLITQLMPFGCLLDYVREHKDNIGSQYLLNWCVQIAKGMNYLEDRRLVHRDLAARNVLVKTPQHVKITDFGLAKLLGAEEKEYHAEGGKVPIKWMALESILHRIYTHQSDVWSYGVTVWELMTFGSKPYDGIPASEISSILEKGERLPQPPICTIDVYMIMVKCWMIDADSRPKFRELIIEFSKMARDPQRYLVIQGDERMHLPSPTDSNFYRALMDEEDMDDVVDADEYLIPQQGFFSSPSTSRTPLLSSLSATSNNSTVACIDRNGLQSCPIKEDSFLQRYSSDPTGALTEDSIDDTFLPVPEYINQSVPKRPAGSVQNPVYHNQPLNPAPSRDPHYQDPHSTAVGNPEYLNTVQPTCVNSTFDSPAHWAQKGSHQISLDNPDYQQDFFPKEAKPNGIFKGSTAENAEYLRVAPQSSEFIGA

IC50 [2]	IC50 [3]	Structure (SMILES)	IC50 [1]	further results
–	–	COc1cc(C[C@H]2NCCc3cc(O)c(O)cc32)cc(OC)c1OC	0.0021 µM	–
0.91 µM	15.1 µM	COc1ccc(Sc2sc3nc(N)nc(N)c3c2C)cc1OC	3.9 µM	–
–	10.4 µM	COc1ccccc1Sc1sc2nc(N)nc(N)c2c1C	–	IC50 [4]: 40.3 µM; IC50 [5]: 160 µM; IC50 [6]: 56.3 µM
1.41 µM	–	COc1ccc(Sc2sc3nc(N)nc(N)c3c2C)cc1	–	–
1.1 µM	–	COc1ccc(Sc2c(C)c3c(N)nc(N)nc3n2C)cc1OC	–	–
